Results published in BigSolDB 2.1.

O=Cc1ccc(C(=O)O)cc1
solubility (mole fraction)
Settings | 283.15 K | 288.15 K | 293.15 K | 298.15 K | 303.15 K | 308.15 K | 313.15 K | 318.15 K | 323.15 K
in NMP | 0.0654 | 0.0767 | 0.0897 | 0.104 | 0.121 | 0.14 | 0.161 | 0.184 | 0.211
in ethanol | 0.00815 | 0.00973 | 0.0115 | 0.0134 | 0.0155 | 0.0181 | 0.0211 | 0.0246 | 0.028
in isopropanol | 0.00498 | 0.00612 | 0.00727 | 0.00867 | 0.0103 | 0.0121 | 0.014 | 0.0163 | 0.0185
in methanol | 0.00781 | 0.00899 | 0.00999 | 0.0115 | 0.0129 | 0.0144 | 0.0163 | 0.0178 | 0.02
in water | 2.15e-05 | 2.83e-05 | 3.61e-05 | 4.64e-05 | 5.91e-05 | 7.67e-05 | 9.57e-05 | 0.00012 | 0.000148
